# Data reported in patent publication US6465646B1, “1-alkoxy and 1-acyloxy substituted cyclohex-1-ene compounds and sulfur and 1-alkoxycarbonyl analogs having retinoid-like biological activity” (Allergan, Inc., priority 1999, dated 2002).
# Tested on: ornithine decarboxylase (ODC)
# Assay: Ornithine decarboxylase (ODC) assay: inhibition of TPA induction of ODC activity
# Type: cell-based
# Source text: A classic measure of retinoic acid activity involves measuring the effects of refinoic acid on ornithine decarboxylase (ODC). The original work on the correlation between retinoic acid and decrease in cell proliferation was done by Verma & Boutwell, Cancer Research, 1977,37, 2196-2201. That reference discloses that ornithine decarboxylase activity increased precedent to polyamine biosynthesis. It has been established elsewhere that increases in polyamine synthesis can be correlated or associated with cellular proliferation. Thus, if ODC activity could be inhibited, cell hyperproliferation could be modulated. Although all cases for ODC activity increases are unknown, it is known that 12-O-tetradecanoylphorbol-13-acetate (TPA) induces ODC activity. Retinoic acid inhibits this induction of ODC activity by TPA. […] “IC60” is that concentration of the test compound which causes 60% inhibition in the ODC assay. By analogy, “IC80”, for example, is that concentration of the test compound which causes 80% inhibition in the ODC assay.
Compound,IC60 (concentration of the test compound which causes 60% inhibition in the ODC assay) (footnote 2: IC60),"IC80 (footnote 1: IC80, read-out: IC80 (concentration of the test compound which causes 80% inhibition in the ODC assay)) [nM]"
"CCOC(=O)c1ccc(C#C/C=C/C2=C(C(=O)OC)CCCC2(C)C)cc1 [Compound 6, Ethyl (E)-4-(4-(6-Carbomethoxy-2,2-dimethylcyclohex-1-enyl)but-3-en-1-yn-yl)benzoate]",0.3^2 nanomolar,
"CCOC(=O)c1ccc(C#C/C=C/C2=C(O[Si](C)(C)C)CCCC2(C)C)cc1 [Compound 1, Ethyl (±)-(E)-4-(4-(6,6-dimethyl-2-(trimethylsily)oxycyclohex-1-enyl)but-3-en-1-yn-yl)benzoate]",,0.46
